For one series, the system named is Mus sp. Description: In vivo for PAF antagonist activity in mice after oral administration. Format: functional.
A short description of series [1]: Inhibition of [3H]nitrendipine binding to dihydropyridine sites of bovine frontal cortex membranes. Format: tissue-based, Bos taurus.
The next series is filed under the species Rattus norvegicus. The series is described as follows: Calcium channel blocking activity in K+ stimulated rat aorta assay. Format: functional.
Series [2] can be described thus: Plasma half life was evaluated in dog. Format: ADME, organism-based, Canis lupus familiaris.
Series [3] is described as follows: Oral bioavailability in dog. Format: ADME, organism-based, Canis lupus familiaris. To be noted: in vivo.
The nature of series [4]: Plasma half life was evaluated in Dog. Format: ADME, organism-based, Canis lupus familiaris.
Series [5] is described as follows: Plasma half life was evaluated. Format: ADME, organism-based, Canis lupus familiaris. Conditions: dog.
Series [6] is described as follows: Half life was evaluated in dog. Format: ADME, organism-based, Canis lupus familiaris. Conditions: in vivo.

The record followed here is ChEMBL document CHEMBL1128110, “Enantiodifferentiation of dihydropyridine PAF antagonists” (Bioorg Med Chem Lett, 1995).

What is called ED50 is the dose that gives a 50% effect, or the effect in half of the subjects. For orientation: IC50 means the concentration at which inhibition is half-maximal. In general, half-life refers to the time needed for the level to fall by half in the phase considered. Read a high half-life as slow loss. What is called bioavailability is the share of a dose that reaches the circulation, judged against a reference dose that is usually intravenous.

With `CCO/C(O)=C1\C(COCCn2c(C)nc3cccnc32)=NC(C)=C(C(=O)Nc2ccccn2)C1c1ccccc1Cl` (stereo unspecified), in the series on Mus sp. (Mus sp., po, read-out: ED50), the ED50 came to 25 mg/kg.
In the series with Mus sp., `CCOC(=O)C1=C(c2ccc(-n3c(C)nc4cnccc43)cc2)NC(C)=C(C(=O)Nc2ccccn2)C1c1ccccc1Cl` (single isomer, unassigned; (-)) had an ED50 of 3.8 mg/kg.
Consider `CCO/C(O)=C1\C(COCCn2c(C)nc(C)c2C)=NC(C)=C(C(=O)OC)[C@@H]1c1ccccc1Cl`, for which the figures for the IC50 (in series [1]; in the series filed under Rattus norvegicus) were 0.041 µM and 0.012 µM, respectively.
Turning to `CCO/C(O)=C1\C(COCCn2c(C)nc(C)c2C)=NC(C)=C(C(=O)Nc2ccccc2)C1c1ccccc1Cl` (stereo unspecified), the ED50 in the series on Mus sp. (Mus sp., po, read-out: ED50) amounted to 18 mg/kg.
Still for that read-out and setting: the result for `CCO/C(O)=C1\C(COCCn2c(C)nc3ncccc32)=NC(C)=C(C(=O)Nc2ccccn2)C1c1ccccc1Cl` (stereo unspecified) reads 31 mg/kg.
The same measure, in the same setting: the figure for `CCO/C(O)=C1\C(COCCn2c(C)nc3ccccc32)=NC(C)=C(C(=O)Nc2ccccn2)C1c1ccccc1Cl` (stereo unspecified) is 49 mg/kg.
In series [2], `CCOC(=O)C1=C(c2ccc(-n3c(C)nc4cnccc43)cc2)NC(C)=C(C(=O)Nc2ccccn2)C1c1ccccc1Cl` (stereo in doubt; 18) showed a half-life of 1.2 h. Besides, in series [3], the bioavailability is 100%. Moreover, the ED50 in the series on Mus sp. came out at 0.26 mg/kg.
With `CCO/C(O)=C1\C(COCCn2c(C)nc(C)c2C)=NC(C)=C(C(=O)NC(C)(C)C)C1c1ccccc1Cl` (stereo unspecified), the median effective dose (ED50) in the series with Mus sp. (Mus sp., po, read-out: ED50) was determined as 10.1 mg/kg.
As to `CCO/C(O)=C1\C(COCCn2c(C)nc(C)c2C)=NC(C)=C(C(=O)OC)C1c1ccccc1Cl` (stereo unspecified), the IC50 in series [1] turned out to be 0.096 µM; in the series filed under Rattus norvegicus, 0.014 µM.
For `CCO/C(O)=C1\C(COCCn2c(C)nc3ccncc32)=NC(C)=C(C(=O)Nc2ccccn2)C1c1ccccc1Cl` (stereo unspecified), the ED50 in the series on Mus sp. (Mus sp., po, read-out: ED50) turned out to be 29 mg/kg.
`CCO/C(O)=C1\C(COCCn2c(C)nc3ccccc32)=NC(C)=C(C(=O)NC(C)(C)C)C1c1ccccc1Cl` (stereo unspecified) had a half-life in series [4] of 1.2 h. In addition, the bioavailability in series [3] was 30%. In the series on Mus sp. (Mus sp., po, read-out: ED50), the ED50 turned out to be 34 mg/kg.
In series [5], `CCO/C(O)=C1\C(COCCn2c(C)nc3cnccc32)=NC(C)=C(C(=O)Nc2ccccn2)C1c1ccccc1Cl` (stereo unspecified) had a half-life of 0.75 h. The molecule further had a bioavailability in series [3] of 4%. In the series with Mus sp. (Mus sp., po, read-out: ED50), the ED50 was 2 mg/kg.
On to `CCO/C(O)=C1\C(COCCn2c(C)nc(C)c2C)=NC(C)=C(C(=O)OC)[C@H]1c1ccccc1Cl`, for which the IC50 in series [1] was more than 10 µM; in the series filed under Rattus norvegicus it was more than 1 µM.
For `CCOC(=O)C1=C(c2ccc(-n3c(C)nc4cnccc43)cc2)NC(C)=C(C(=O)Nc2ccccn2)C1c1ccccc1Cl` (single isomer, unassigned; (+)), the ED50 with Mus sp. amounted to 0.15 mg/kg.
In series [6], `CCO/C(O)=C1\C(COCCn2c(C)nc(C)c2C)=NC(C)=C(C(=O)Nc2cccc(C)n2)C1c1ccccc1Cl` (stereo unspecified) gave a half-life of 4.4 h. The molecule further yielded a bioavailability in series [3] of 9%. Further, the ED50 with Mus sp. (Mus sp., po, read-out: ED50) turned out to be 4.5 mg/kg.
